The values below are quoted from earlier work in patent US20230354819A1 (priority 2020, published 2023).

Molecules are shown by their SMILES. Bridge positions count the residues as written; N and C are the ends. Square brackets hold non-standard residues; d marks the D form. Peptide text beside a SMILES is read from it. * marks the point of attachment. ξ: configuration not given here. Pentadecanoyl(3ξ-OH,15-Gua) = N=C(N)NCCCCCCCCCCCCC(O)CC(=O)*; d(aThr) = C[C@@H](O)[C@@H](N)C(=O)O; Thr(3ξ) = CC(O)[C@H](N)C(=O)O; ξY = NC(Cc1ccc(O)cc1)C(=O)O

Data set [1] relates to plant pathogenic fungi such as Fusarium oxysporum, Aspergillus niger, Aspergillus oryzae, and Penicillium thomii. As to conditions: J. Antibiotics 49(2), 129-135, 1996; 50(3), 220-228, 1997.
Data set [2] has as its system Fusarium oxysporum. As to conditions: WO 2006/016558.
For data set [3], the system named is Staphylococcus aureus. More on the design: unit not given here. As to conditions: variety of clinically relevant fungi and gram-positive bacteria such a Staphylococcus aureus; ChemMedChem 7, 871-882, 2012.

Consider `CC(C)[C@@H]1NC(=O)[C@@H](C(C)C)NC(=O)[C@@H](NC(=O)CC(O)CCCCCCCCCCCCN=C(N)N)C(C)OC(=O)[C@@H](C)NC(=O)[C@@H](CCC(N)=O)NC(=O)[C@@H]([C@H](C)O)NC1=O` (stereo in doubt) [fusaricidin B], for which the “inhibition of plant pathogenic fungi” value in data set [1] is recorded as “inhibit plant pathogenic fungi”. Besides, the “inhibition of growth of Fusarium oxysporum” value in data set [2] was “inhibit growth”. With `CC1OC(=O)[C@@H](C)NC(=O)[C@@H](CC(N)=O)NC(=O)[C@@H]([C@H](C)O)NC(=O)C(Cc2ccc(O)cc2)NC(=O)[C@@H](C(C)C)NC(=O)[C@H]1NC(=O)CC(O)CCCCCCCCCCCCN=C(N)N` (stereo partly shown) [fusaricidin C] ({Pentadecanoyl(3ξ-OH,15-Gua)}-[Thr(3ξ)][dV][ξY][dT][dN][dA]; ester 1-C), in data set [1], the “inhibition of plant pathogenic fungi” value is recorded as “inhibit plant pathogenic fungi”. With `CC1OC(=O)[C@@H](C)NC(=O)[C@@H](CCC(N)=O)NC(=O)[C@@H]([C@H](C)O)NC(=O)C(Cc2ccc(O)cc2)NC(=O)[C@@H](C(C)C)NC(=O)[C@H]1NC(=O)CC(O)CCCCCCCCCCCCN=C(N)N` (stereo partly shown) [fusaricidin D] ({Pentadecanoyl(3ξ-OH,15-Gua)}-[Thr(3ξ)][dV][ξY][dT][dQ][dA]; ester 1-C), the “inhibition of plant pathogenic fungi” value in data set [1] is listed as “inhibit plant pathogenic fungi”. Regarding `CC(C)[C@@H]1NC(=O)[C@@H](C(C)C)NC(=O)[C@@H](NC(=O)CC(O)CCCCCCCCCCCCN=C(N)N)[C@@H](C)OC(=O)[C@@H](C)NC(=O)[C@@H](CC(N)=O)NC(=O)[C@@H]([C@@H](C)O)NC1=O` (stereo partly shown) [fusaricidin A] ({Pentadecanoyl(3ξ-OH,15-Gua)}-T[dV]V[d(aThr)][dN][dA]; ester 1-C), in data set [3], the MIC value range is recorded as 0.78-3.12. Besides, in data set [1], the “inhibition of plant pathogenic fungi” value was “inhibit plant pathogenic fungi”. The “inhibition of growth of Fusarium oxysporum” value in data set [2] is recorded as “inhibit growth”.
